This is an account of results in patent US6670367B1, “Azinyloxy, and phenoxy-diaryl-carboxylic acid derivatives, their preparation and use as mixed ETA/ETB endothelin receptor antagonists” (Abbott GmbH & Co., KG, priority 1996, dated 2003).

One data set deals with T1, human ETB receptor (Homo sapiens, UniProt P24530).
T1 construct: expressed in transfected cells; host or cells: CHO cells (membrane preparation)
T1 sequence (P24530 27-442): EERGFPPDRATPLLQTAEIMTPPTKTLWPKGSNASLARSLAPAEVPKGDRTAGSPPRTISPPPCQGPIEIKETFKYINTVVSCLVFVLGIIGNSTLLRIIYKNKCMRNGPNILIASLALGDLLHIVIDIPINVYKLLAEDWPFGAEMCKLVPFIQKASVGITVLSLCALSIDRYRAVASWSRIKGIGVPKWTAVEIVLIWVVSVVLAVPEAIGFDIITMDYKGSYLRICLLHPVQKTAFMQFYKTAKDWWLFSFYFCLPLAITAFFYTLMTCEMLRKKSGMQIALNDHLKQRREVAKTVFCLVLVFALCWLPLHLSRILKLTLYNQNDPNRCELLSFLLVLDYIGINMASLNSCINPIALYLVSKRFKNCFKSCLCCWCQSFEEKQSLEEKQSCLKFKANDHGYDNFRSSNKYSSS
Kind of data set: ETB receptor binding assay (125I-ET3, membranes of receptor-expressing CHO cells). As to conditions: cloned human ETB receptor, CHO cell membranes, 25 pM 125I-ET3, 25° C., 30 min. As for the experimental part: (§1) Cloned human ETA or ETB receptor-expressing CHO cells were employed for binding studies.
(§2) The ETA or ETB receptor-expressing CHO cells were grown in DMEM NUT MIX F12 medium (Gibco, No. 21331-020) with 10% fetal calf serum (PAA Laboratories GmbH, Linz, No. A15-022), 1 mM glutamine (Gibco No. 25030-024), 100 U/ml penicillin and 100 μg/ml streptomycin (Gibco, Sigma No. P-0781). After 48 hours, the cells were washed with PBS and incubated with 0.05% trypsin-containing PBS at 37° C. for 5 minutes. Neutralization with medium was then carried out, and the cells were collected by centrifugation at 300×g.
(§3) For the membrane preparation, the cells were adjusted to a concentration of 10^8 cells/ml of buffer (50 mM tris.HCL buffer, pH 7.4) and then disintegrated by ultrasound (Branson Sonifier 250, 40-70 seconds/constant/output 20).
(§4) For the ETA and ETB receptor binding assays, the membranes were suspended in incubation buffer (50 mM tris-HCl, pH 7,4 with 5 mM MnCl2, 40 μg/ml bacitracin and 0.2% BSA) at a concentration of 50 μg of protein per assay mixture, and incubated with 25 pM ^125I-ET1 (ETA receptor assay) or 25 pM ^125I-ET3 (ETB receptor assay) in the presence and absence of test substance at 25° C. The nonspecific binding was determined with 10^−7 M ET1. Filtration was carried out after 30 min through GF/B glassfiber filters (Whatman, England) in a Skatron cell collector (Skatron, Lier, Norway) to separate free and bound radio ligands, and the filters were washed with ice-cold tris-HCl buffer, pH 7.4 with 0.2% BSA. The radioactivity collected on the filters was quantified using a
(§5) Packard 2200 CA liquid scintillation counter.

In a further data set the target is T2, human ETA receptor (Homo sapiens, UniProt P25101).
T2 construct: expressed in transfected cells; host or cells: CHO cells (membrane preparation)
T2 sequence (P25101 21-427): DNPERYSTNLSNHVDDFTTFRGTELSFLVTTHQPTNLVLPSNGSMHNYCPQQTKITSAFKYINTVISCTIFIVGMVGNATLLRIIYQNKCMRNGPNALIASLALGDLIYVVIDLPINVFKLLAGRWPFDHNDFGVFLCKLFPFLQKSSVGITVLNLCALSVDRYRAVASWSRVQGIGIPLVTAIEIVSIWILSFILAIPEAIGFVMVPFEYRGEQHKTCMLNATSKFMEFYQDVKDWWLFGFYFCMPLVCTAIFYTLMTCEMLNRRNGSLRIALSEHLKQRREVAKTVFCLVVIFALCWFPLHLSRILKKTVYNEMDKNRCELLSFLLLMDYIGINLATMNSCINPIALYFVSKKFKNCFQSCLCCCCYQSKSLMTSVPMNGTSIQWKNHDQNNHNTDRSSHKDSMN
Kind of data set: ETA receptor binding assay (125I-ET1, membranes of receptor-expressing CHO cells). As to conditions: cloned human ETA receptor, CHO cell membranes, 25 pM 125I-ET1, 25° C., 30 min. As for the experimental part:
as §1, §2, §3, §4, §5

As to `COc1ccc(CCOC(c2ccccc2)(c2ccccc2)C(Oc2nc(C)cc(C)n2)C(=O)O)cc1OC` (centres unmarked) [Compound I-445], the melting point (commonly the temperature, or range, at which the solid turns liquid) was 125 to 130 °C (dec.). In addition, affinity on human ETB receptor was put at a Ki of 7.2 nM. Further, the Ki – broadly, the dissociation constant of the complex between target and ligand, obtained from inhibition or displacement – on human ETA receptor is 3.5 nM.
In the same order, the values of `COc1nc(OC(C(=O)O)C(OCCc2ccc(C)cc2)(c2ccccc2)c2ccccc2)nc2c1CCO2` (centres unmarked) [Compound I-370, 2-(4-Methoxy-5,6-dihydrofuro(2,3d)-2-pyrimidinyloxy)-3-(2-(4-methylphenyl)ethoxy)-3,3-diphenylpropionic Acid] are 128 to 130 °C, 54 nM and 11 nM.
In turn, `COc1cc(C)nc(OC(C(=O)O)C(OCCc2ccc(OC)c(OC)c2)(c2ccc(Cl)cc2)c2ccc(Cl)cc2)n1` (centres unmarked) [Compound I-699, 2-(4-Methoxy-6-methyl-2-pyrimidinyloxy)-3-(2-(3,4-dimethoxyphenyl)ethoxy)-3,3-di(4-chlorophenyl)propionic Acid] displayed a melting point of 100 to 110 °C. The same compound showed a Ki at human ETB receptor of 130 nM. This compound also gave a Ki on human ETA receptor of 230 nM.
With `COc1ccccc1CCOC(c1ccccc1)(c1ccccc1)C(Oc1nc(OC)c2c(n1)OCC2)C(=O)O` (centres unmarked) [Compound I-140], the Ki on human ETB receptor was 460 nM; on human ETA receptor it was 575 nM.
Turning to `COc1cc(C)nc(OC(C(=O)O)C(OCCCc2ccccc2)(c2ccccc2)c2ccccc2)n1` (centres unmarked) [Compound I-499, 2-(4-Methoxy-6-methyl-2-pyrimidinyloxy)-3-(3-phenylpropoxy)-3,3-diphenylpropionic Acid], the results for the Ki on human ETB receptor and at human ETA receptor were 135 nM and 31 nM, respectively.
For the compound `COc1ccc(CCOC(c2ccccc2)(c2ccccc2)C(Oc2nc(C)cc(OC)n2)C(=O)O)cc1` (centres unmarked) [Compound I-622, 2-(4-Methoxy-6-methyl-2-pyrimidinyloxy)-3-(2-(4-methoxyphenyl)ethoxy)-3,3-diphenylpropionic Acid], the results for the inhibition constant (Ki) at human ETB receptor and at human ETA receptor were 23 nM and 3 nM, respectively.
Consider `Cc1cc(C)nc(OC(C(=O)O)C(OCCc2ccc(Cl)cc2)(c2ccccc2)c2ccccc2)n1` (centres unmarked) [Compound I-713, 2-(4,6-Dimethyl-2-pyrimidinyloxy)-3-(2-(4-chlorophenyl)ethoxy)-3,3-diphenylpropionic Acid], for which the melting point is 108 °C (dec.). The compound further registered a Ki at human ETB receptor of 96 nM. Besides, the inhibition constant (Ki) on human ETA receptor came to 20 nM.
For `COc1ccc(CCOC(c2ccc(Cl)cc2)(c2ccc(Cl)cc2)C(Oc2nc(OC)c3c(n2)OCC3)C(=O)O)cc1OC` (centres unmarked) [Compound I-635, 2-(4-Methoxy-5,6-dihydrofuro(2,3d)-2-pyrimidinyloxy)-3-(2-(3,4-dimethoxyphenyl)ethoxy)-3,3-di(4-chlorophenyl)propionic Acid], the melting point is 100 to 110 °C. The same compound came in with a Ki on human ETB receptor of 126 nM. The compound further came in with an inhibitory constant (Ki) on human ETA receptor of 210 nM.
As for `Cc1cc(C)nc(OC(C(=O)O)C(OCCc2ccc(C(C)C)cc2)(c2ccccc2)c2ccccc2)n1` (centres unmarked) [Compound I-672, 2-(4,6-Dimethyl-2-pyrimidinyloxy)-3-(2-(4-i-propylphenyl)ethoxy)-3,3-diphenylpropionic Acid], the results for the Ki on human ETB receptor and at human ETA receptor were 185 nM and 60 nM, respectively.
`COc1cc(CCOC(c2ccc(Cl)cc2)(c2ccc(Cl)cc2)C(Oc2nc(OC)c3c(n2)OCC3)C(=O)O)cc(OC)c1` (centres unmarked) [Compound I-593, 2-(4-Methoxy-5,6-dihydrofuro(2,3d)-2-pyrimidinyloxy)-3-(2-(3,5-dimethoxyphenyl)ethoxy)-3,3-di(4-chlorophenyl)propionic Acid]: the melting point fell in the range of 90 to 100 °C. The Ki on human ETB receptor was determined as 160 nM. The same compound yielded a Ki at human ETA receptor of 300 nM.
